According to patent US9199976B2, “Haematopoietic-prostaglandin D2 synthase inhibitors” (The University of Queensland, priority 2010, dated 2015):

Tests used:
[1] = system: BMM; assay: BMM cell viability by MTT assay; type: cell-based, mouse; conditions: LPS 10 ng/ml, 24 h, 10-100 μM
Procedure: (§1) All bone marrow-derived macrophages (BMM) were obtained by culturing bone marrow cells from the femurs of 6 to 8 week old C57BL/6 male mice in RPMI 1640 medium (Invitrogen Life Technologies, Carlsbad, Calif., USA) supplemented with 10% Fetal calf serum (Invitrogen) 20 U/ml penicillin and 20 μg/ml streptomycin (Invitrogen), 2 mM L-glutamine (Glutamax-1, Invitrogen) in the presence of 10^4 U/ml (100 ng/mL) recombinant human CSF-1 (a gift from Chiron, Emeryville, Calif.) on bacteriological plastic plates for 7 days. The human megakaryocytic cell line MEG-01S was obtained from the American Type Culture Collection. MEG-01S were maintained in the same media as for BMM, supplemented with 1 mM Sodium Pyruvate (Invitrogen).
(§2) Known inhibitors 1 and 2, along with compound 3, were used to treat BMM at three doses (10, 30, 100 μM) in the presence of LPS for 24 h and cell viability was measured by MTT assay. BMM were seeded at 1×10^5 cells/well in 96 well plates and treated for 24 h with LPS (10 ng/ml) and compounds at 10, 30 and 100 μM. MEG-01S were PMA differentiated overnight before compounds were added for a further 24 h at 10, 30 and 100 μM. Cell viability was measured by MTT (Sigma-Aldrich) assay as described previously (Irvine, FASEB J, 2006).

[2] = system: MEG-01S cells; assay: MEG-01S cell viability by MTT assay; type: cell-based, human; conditions: 24 h, 0-100 μM
Procedure: as §1, §2
The effect of the compounds on MEG-01S cell viability was measured by MTT assay after 24 h treatment across the concentration range 0-100 μM of compounds (FIG. 3B). Data represent the average of 4 independent experiments plus SEM.

[3] = target: H-PGDS (Homo sapiens (Human), UniProt O60760); assay: H-PGDS catalyzed conjugation of GSH and CDNB, enzyme inhibition assay; type: biochemical; conditions: 50 μM compound; mean ± standard error of triplicate experiments; read-out: I[50], percent inhibition at 50 μM
Procedure: H-PGDS was expressed and purified as described previously (Jowsey, 2001). Briefly, H-PGDS was expressed in Escherichia coli strain BL21 DE3 transformed with the pET17b HPGDS expression construct, grown overnight at 37° C. in 250 ml of Luria-Bertani medium supplemented with 100 μg/ml ampicillin. After 24 h, without induction, bacteria were harvested by centrifugation at 5000 g for 20 min at 4° C.; cell pellets were kept at −70° C. until required. Cells were resuspended in 25 ml of ice-cold phosphate buffered saline (PBS), pH 7.4, containing 1 mM DTT, 0.5% Triton X-100 and EDTA-free protease inhibitor tablets (F. Hoffmann-La Roche, Dee Why, NSW, Australia); and incubated with rotation for 30 mins at 4° C. Cells were then lysed by sonication at 90-100 W over 3×1 min intervals, while incubated on ice; the lysate clarified by centrifugation at 18000 g for 10 min at 4° C.
The supernatant was then applied to a GSTPrep FF 16/10 column pre-equilibrated with PBS, pH 7.4, and 1 mM DTT, at 0.4 ml/minute using an AKTA explorer 100 (GE Healthcare, Rydalmere, NSW, Australia), then washed with 5 column volumes of the same buffer at 1 ml/min. Bound H-PGDS was eluted in 5 column volumes of 15 mM reduced glutathione in 50 mM Tris, pH 9.0, at 0.5 ml/min, and dialysed against 100 volumes of 5 mM TrisCl, pH 8.0. The protein was concentrated to 20 mg/ml, as determined by the method of Bradford (Bradford, 1976) using an Amicon Ultra-4 centrifugal filter device (Millipore, North Ryde, NSW, Australia) following manufacturers recommendations. Glycerol was added to a final concentration of 10% (v/v) prior to storage at −20° C.
The H-PGDS catalyzed conjugation of GSH and 1-chloro-2,4-dinitrobenzene (CDNB) was used as the biochemical assay for enzyme inhibition. Reactions were performed in 96 well plate format, and product formation was followed at A340 nm over a 10 min interval at 25° C. using a POWERWAVE XS microplate scanning spectrophotometer (Bio-Tek Instruments, Winooski, Vt., USA). Reactions were performed in 0.1 M Tris HCl, pH 8.0 containing 2 mM MgCl2, 1 mM CDNB, 2 mM GSH, 2.5 ng/μ1 purified H-PGDS and 10% (v/v) ethanol in a 200 μl reaction volume. IC50 values were calculated from rates of conjugation activity determined at eight concentration points bracketing the IC50, where compound solubility allowed, and were corrected for background activity at the same solvent concentrations. All compounds were made up in 100% DMSO and diluted with 0.1 M Tris HCl, pH 8.0 with 2 mM MgCl2. I50 and IC50 values were determined at a final DMSO composition of no greater than 4% v/v for all compounds. Non-linear regression analysis and IC50 calculations were performed using GraphPad Prism version 4.0c.

[4] = system: PGD2 production in mouse primary bone marrow-derived macrophages (BMM); assay: PGD2 production in LPS-activated BMM (EIA); type: cell-based
Procedure: as §1, with “(Invitrogen). […] The average PGD2 production from three independent experiments plus SEM is shown. * indicates p<0.05 versus LPS treatment alone. (Student's t test).” for “(Invitrogen).”

[5] = system: LPS-inducible PGE2 production from BMM; assay: PGE2 production in LPS-activated BMM (EIA); type: cell-based; conditions: LPS-activated mouse BMM, 24 h
Procedure: as §1
(§3) BMM were seeded overnight at 2×10^5 cells/ml in 24 well plates before treatment with compound at either 10 μM or 0.1-100 μM for 24 h in the presence or absence of lipopolysaccharide (LPS) from Salmonella Minnesota (Sigma-Aldrich) at a final concentration of 10 ng/ml. […] Supernatants were collected and samples were analysed for PGD2 using Prostaglandin D2 Mox Express EIA kits, PGE2 using Prostaglandin E2 Express EIA kits, the prostacyclin derivative 6-keto PGF1α using the 6-keto Prostaglandin F1α EIA Kit and the Thromboxane A2 derivative TXB2 using the Thromboxane B2 Express EIA kit (Cayman Chemical) according to the manufacturer's instructions. […]

[6] = system: LPS-inducible 6-keto PGF1α (prostacyclin derivative) production from BMM; assay: 6-keto PGF1α production in LPS-activated BMM (EIA); type: cell-based; conditions: LPS-activated mouse BMM, 24 h
Procedure: as §1, §3

[7] = system: LPS-inducible TXB2 (thromboxane A2 derivative) production from BMM; assay: TXB2 production in LPS-activated BMM (EIA); type: cell-based; conditions: LPS-activated mouse BMM, 24 h
Procedure: as §1, §3

[8] = system: PGD2 production from MEG-01S human megakaryocytes; assay: A23187-inducible PGD2 production in PMA-differentiated MEG-01S (EIA); type: cell-based; conditions: 0-100 μM
Procedure: as §1, §3

[9] = Rat pharmacokinetics, plasma concentration after oral dosing; type: in vivo, Sprague Dawley rat; conditions: single oral 40 mg/kg; for Concentration (individual rat): rat plasma
Procedure: Male adult Sprague Dawley rates (˜165 g) received a single oral bolus dose of 40 mg/kg of compound 3 in a 0.5% methylcellulose/0.1% Tween80 by oral gavage. Rats were sacrificed when collecting blood and spleen samples just prior to dosing and at 0.5 hours, 2 h, 8 h and 24 h (n=3 rats per time point), and the plasma concentration of compound 3 and the spleen PGD2 concentration was measured at each time point.
Blood samples were removed and kept cold at approximately 4° C. immediately after collection to minimize degradation and centrifuged as soon as possible at approximately 4000×g for 10 min. The plasma was transferred to a clean, pre-labelled polypropylene tube and frozen. Samples were stored at −20° C. as soon as possible after collection to minimise degradation of the test item.
Plasma concentrations of 3 were determined using a screening LC-ms/ms method developed using the following parameters:
Samples were analysed alongside plasma standards. Concentration data were determined by back calculation from standard curve.

H-PGDS, sequence (O60760 whole entry): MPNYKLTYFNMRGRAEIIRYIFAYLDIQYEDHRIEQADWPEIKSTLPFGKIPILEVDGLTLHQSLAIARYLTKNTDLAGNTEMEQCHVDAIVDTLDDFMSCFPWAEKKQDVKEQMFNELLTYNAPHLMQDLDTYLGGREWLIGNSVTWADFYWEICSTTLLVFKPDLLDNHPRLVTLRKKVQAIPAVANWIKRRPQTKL

Compound: c1ccc(C(OC2CCN(CCCc3nnn[nH]3)CC2)c2ccccc2)cc1 [Compound 1]
- effect on BMM cell viability [1]: modest but significant effects
- effect on MEG-01S cell viability [2]: little effect

Compound: Cc1cc(-c2ccc(C(=O)N[C@@H](Cc3ccccc3)C(N)=O)cn2)sc1C#N [Compound 22]
- inhibition at 50 µM [3]: 34.6 ± 2.1%

Compound: NC(=O)[C@H](Cc1ccccc1)NC(=O)c1ccc(-c2ccc(C(=O)O)s2)nc1 [Compound 15]
- inhibition at 50 µM [3]: 19.4 ± 1.4%

Compound: O=C(c1ccc(-c2cccs2)nc1)N1CCC(N2C(=O)OCc3ccccc32)CC1 [Compound 13, 1-(1-(6-(thiophen-2-yl)nicotinoyl)piperidin-4-yl)-1H-benzo[d][1,3]oxazin-2(4H)-one]
- inhibition at 50 µM [3]: 87.9 ± 1.1%

Compound: N#Cc1ccc(-c2ccc(C(=O)N[C@@H](Cc3ccccc3)C(N)=O)cn2)s1 [Compound 20]
- inhibition at 50 µM [3]: 67.9 ± 1.6%

Compound: c1ccc(-c2ncc(-c3cc[nH]n3)s2)cc1 [Compound 2]
- EC50 ([4]; Mus musculus, Macrophage, 24 h, read-out: EC50 for inhibition of PGD2 production): ~0.16 µM
- effect on BMM cell viability [1]: modest but significant effects
- effect on MEG-01S cell viability [2]: little effect

Compound: NC(=O)[C@H](Cc1ccccc1)NC(=O)c1ccc(-c2cccs2)nc1 (stereo in doubt) [Compound 3, N-(1-amino-1-oxo-3-phenylpropan-2-yl)-6-(thiophen-2-yl)-nicotinamide]
- differential effect in inhibition of PGD2 versus PGE2, 6-keto PGF1α or TXB2 (selectivity) ([4]; LPS-activated mouse BMM): striking selectivity
- inhibition of PGD2 production ([4]; LPS-activated mouse BMM, 0-100 μM, 24 h): inhibited PGD2 production in the sub-micromolar range dose-dependently
- inhibition of PGD2 levels at 1 μM ([4]; LPS-activated mouse BMM, 1 μM): significantly inhibiting
- EC50 fold better than that estimated for compound 1 ([4]; LPS-activated mouse BMM, PGD2 production): ~30 fold
- concentration above which PGE2 inhibition was observed [5]: above 10 μM
- concentration above which 6-keto PGF1α inhibition was observed [6]: above 10 μM
- concentration above which TXB2 inhibition was observed [7]: above 10 μM
- effect on BMM cell viability [1]: did not affect BMM viability
- inhibition of A23187-inducible PGD2 production [8]: dose-dependently
- effect on MEG-01S cell viability [2]: little effect
- Concentration (individual rat) ([9]; 0.5 h): 0.177 µg/mL
- Concentration (individual rat) ([9]; 24 h, BLOQ = below the lower limit of quantitation): BLOQ^2
- oral bioavailability ([9]; rat): orally bioavailable
